Assay results as given in ChEMBL document CHEMBL1201862, “PubChem BioAssay data set” (2004).
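Briefly, cells in 96-well plates were exposed to five compound concentrations for 48 h, and endpoints were estimated by linear interpolation. Here, GI50 denotes the concentration required for 50% inhibition of growth.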 Activity calls are given as the source filed them. Cut-off read from the data, not from the text of the source: active = GI50 up to about 1.1 µM and inactive = higher.

How the values were obtained:
Assay in all cases: inhibition of tumour cell growth, NCI panel, 48 h
COLO 205 = tested on: COLO 205
KM12 = tested on: KM12
K562 = tested on: K562
DMS-273 = tested on: DMS-273
HOP-62 = tested on: HOP-62
M19-MEL = tested on: M19-MEL
OVCAR-3 = tested on: OVCAR-3
HOP-92 = tested on: HOP-92
A549 = tested on: A549
CAKI-1 = tested on: CAKI-1
Malme-3M = tested on: Malme-3M
HOP-18 = tested on: HOP-18
ACHN = tested on: ACHN
CCRF-CEM = tested on: CCRF-CEM
UO-31 = tested on: UO-31
HCC 2998 = tested on: HCC 2998
KM-20L2 = tested on: KM-20L2
SF-295 = tested on: SF-295
NCI-H226 = tested on: NCI-H226
TK-10 = tested on: TK-10
U-251 = tested on: U-251
MOLT-4 = tested on: MOLT-4
SNB-19 = tested on: SNB-19
NCI-H460 = tested on: NCI-H460
SNB-75 = tested on: SNB-75
NCI-H23 = tested on: NCI-H23
SN12C = tested on: SN12C
XF498 = tested on: XF498
OVCAR-8 = tested on: OVCAR-8
DMS-114 = tested on: DMS-114
A498 = tested on: A498
LXFL 529 = tested on: LXFL 529
SK-MEL-28 = tested on: SK-MEL-28
OVCAR-5 = tested on: OVCAR-5
HL-60 = tested on: HL-60
IGROV-1 = tested on: IGROV-1
SF-268 = tested on: SF-268
M14 = tested on: M14
RPMI-8226 = tested on: RPMI-8226
HT-29 = tested on: HT-29
RXF 631 = tested on: RXF 631
NCI-H522 = tested on: NCI-H522
LOX IMVI = tested on: LOX IMVI
SK-MEL-5 = tested on: SK-MEL-5
SK-OV-3 = tested on: SK-OV-3
EKVX = tested on: EKVX
SK-MEL-2 = tested on: SK-MEL-2
SF-539 = tested on: SF-539
SNB-78 = tested on: SNB-78
UACC-257 = tested on: UACC-257
RXF 393 = tested on: RXF 393
DLD-1 = tested on: DLD-1
HCT-15 = tested on: HCT-15
SR = tested on: SR
786-0 = tested on: 786-0
UACC-62 = tested on: UACC-62
HCT-116 = tested on: HCT-116
OVCAR-4 = tested on: OVCAR-4
SW-620 = tested on: SW-620

SMILES: CCN(CC)c1ccc2c(c1)N=C1N=CC=CN1C2(c1ccc(N(C)C)cc1)c1ccc(N(C)C)cc1
- GI50 (COLO 205): 2.36 µM (inactive)
- GI50 (KM12): 4.42 µM (inactive)
- GI50 (K562): 2.3 µM (inactive)
- GI50 (DMS-273): 25.8 µM (inactive)
- GI50 (HOP-62): 10.9 µM (inactive)
- GI50 (M19-MEL): 5.97 µM (inactive)
- GI50 (OVCAR-3): 3.16 µM (inactive)
- GI50 (HOP-92): 2.82 µM (inactive)
- GI50 (A549): 12 µM (inactive)
- GI50 (CAKI-1): 11.1 µM (inactive)
- GI50 (Malme-3M): 12.7 µM (inactive)
- GI50 (HOP-18): 3.72 µM (inactive)
- GI50 (ACHN): 4.5 µM (inactive)
- GI50 (CCRF-CEM): 8.55 µM (inactive)
- GI50 (UO-31): 7.48 µM (inactive)
- GI50 (HCC 2998): 3.24 µM (inactive)
- GI50 (KM-20L2): 2.97 µM (inactive)
- GI50 (SF-295): 3.64 µM (inactive)
- GI50 (NCI-H226): 10.8 µM (inactive)
- GI50 (TK-10): 13 µM (inactive)
- GI50 (U-251): 4.32 µM (inactive)
- GI50 (MOLT-4): 2.47 µM (inactive)
- GI50 (SNB-19): 11.4 µM (inactive)
- GI50 (NCI-H460): 5.62 µM (inactive)
- GI50 (SNB-75): 11.6 µM (inactive)
- GI50 (NCI-H23): 6.95 µM (inactive)
- GI50 (SN12C): 5.27 µM (inactive)
- GI50 (XF498): 3.72 µM (inactive)
- GI50 (OVCAR-8): 4.19 µM (inactive)
- GI50 (DMS-114): 3.09 µM (inactive)
- GI50 (A498): 17.5 µM (inactive)
- GI50 (LXFL 529): 3.84 µM (inactive)
- GI50 (SK-MEL-28): 10.8 µM (inactive)
- GI50 (OVCAR-5): 13.3 µM (inactive)
- GI50 (HL-60): 1.43 µM (inactive)
- GI50 (IGROV-1): 10.4 µM (inactive)
- GI50 (SF-268): 11 µM (inactive)
- GI50 (M14): 3.32 µM (inactive)
- GI50 (RPMI-8226): 2.9 µM (inactive)
- GI50 (HT-29): 3.12 µM (inactive)
- GI50 (RXF 631): 3.83 µM (inactive)
- GI50 (NCI-H522): 1.74 µM (inactive)
- GI50 (LOX IMVI): 5.25 µM (inactive)
- GI50 (SK-MEL-5): 11.9 µM (inactive)
- GI50 (SK-OV-3): 2.61 µM (inactive)
- GI50 (EKVX): 9.73 µM (inactive)
- GI50 (SK-MEL-2): 12.6 µM (inactive)
- GI50 (SF-539): 14.6 µM (inactive)
- GI50 (SNB-78): 16.7 µM (inactive)
- GI50 (UACC-257): 5.24 µM (inactive)
- GI50 (RXF 393): 8.57 µM (inactive)
- GI50 (DLD-1): 4.53 µM (inactive)
- GI50 (HCT-15): 10.9 µM
- GI50 (SR): 3.61 µM (inactive)
- GI50 (786-0): 7.73 µM (inactive)
- GI50 (UACC-62): 10.7 µM (inactive)
- GI50 (HCT-116): 3.85 µM (inactive)

SMILES: CCOC(=O)Cc1nc2ccc3c(c2nc1O)C(=O)c1ccccc1C3=O
- GI50 (COLO 205): > 100 µM (inactive)
- GI50 (KM12): 14.7 µM (inactive)
- GI50 (K562): 32.4 µM (inactive)
- GI50 (DMS-273): 40.5 µM (inactive)
- GI50 (HOP-62): 28.2 µM (inactive)
- GI50 (M19-MEL): 78.2 µM (inactive)
- GI50 (OVCAR-3): 58.3 µM (inactive)
- GI50 (HOP-92): 60.4 µM (inactive)
- GI50 (A549): 34.4 µM (inactive)
- GI50 (CAKI-1): 14.6 µM (inactive)
- GI50 (Malme-3M): 60.7 µM (inactive)
- GI50 (HOP-18): 16 µM (inactive)
- GI50 (ACHN): 20.6 µM (inactive)
- GI50 (CCRF-CEM): 1.95 µM (inactive)
- GI50 (UO-31): 35.4 µM (inactive)
- GI50 (HCC 2998): 46.7 µM (inactive)
- GI50 (KM-20L2): > 100 µM (inactive)
- GI50 (NCI-H226): 80.7 µM (inactive)
- GI50 (TK-10): 31.7 µM (inactive)
- GI50 (U-251): 48.4 µM (inactive)
- GI50 (MOLT-4): 5.45 µM (inactive)
- GI50 (SNB-19): > 100 µM (inactive)
- GI50 (NCI-H460): 35.4 µM (inactive)
- GI50 (SNB-75): 62.7 µM (inactive)
- GI50 (NCI-H23): 40.2 µM (inactive)
- GI50 (SN12C): 23.7 µM (inactive)
- GI50 (XF498): 52.8 µM (inactive)
- GI50 (OVCAR-8): 31.6 µM (inactive)
- GI50 (DMS-114): 20.5 µM (inactive)
- GI50 (OVCAR-4): 46.5 µM (inactive)
- GI50 (A498): 28.4 µM (inactive)
- GI50 (LXFL 529): 47.9 µM (inactive)
- GI50 (SK-MEL-28): > 100 µM (inactive)
- GI50 (OVCAR-5): > 100 µM (inactive)
- GI50 (SW-620): 56 µM (inactive)
- GI50 (IGROV-1): 16.9 µM (inactive)
- GI50 (SF-268): 38.5 µM (inactive)
- GI50 (M14): 77.3 µM (inactive)
- GI50 (RPMI-8226): 13.6 µM (inactive)
- GI50 (HT-29): > 100 µM (inactive)
- GI50 (RXF 631): 39.5 µM (inactive)
- GI50 (NCI-H522): 16.8 µM (inactive)
- GI50 (LOX IMVI): 25.5 µM (inactive)
- GI50 (SK-MEL-5): 26.1 µM (inactive)
- GI50 (SK-OV-3): 22.8 µM (inactive)
- GI50 (EKVX): 3.61 µM (inactive)
- GI50 (SK-MEL-2): 76.4 µM (inactive)
- GI50 (SF-539): 76.4 µM (inactive)
- GI50 (SNB-78): 70.5 µM (inactive)
- GI50 (UACC-257): 65.8 µM (inactive)
- GI50 (RXF 393): 8.09 µM (inactive)
- GI50 (DLD-1): 23.7 µM (inactive)
- GI50 (HCT-15): 25.2 µM
- GI50 (786-0): 65.6 µM (inactive)
- GI50 (UACC-62): 34.5 µM (inactive)
- GI50 (HCT-116): 31.5 µM (inactive)
